Series [1] has as its system HIV-1 with WT (wild type) RT in TZM-bl cells. The experiment in a line: Anti-HIV assay on TZM-bl cell line, WT RT. The class given is cell-based. How it is done: (§1) Wurzburg Jurkat T cells (subclone JR) were transfected with 10 μg of the circularly permuted infectious molecular clone HIVNL4-3 (Adachi et al., 1986. J. Virol, 59 (2), p 284-291). Two days later, co-cultivation with SupT1 cells (a human T-cell lymphoma cell line) was initiated to facilitate rapid production of progeny virions. Production of virus was measured by using the Innotest HIV Antigen mAb p24 kit (Innogenetics). At the peak of production cultures were harvested and filtered. The virus stocks were stored at −80° C. until used.
(§2) Anti-HIV activity and cytotoxicity of the compounds were tested on the TZM-b1 cell line. The TZM-b1 cell line (Wei et al. 2002. Antimicrob. Agents Chemother. Vol. 46, p 1896-1905) was received from the NIH AIDS Research and Reference Reagent Program. These cells were cultured in complete DMEM medium supplemented with 10% fetal bovine serum (FBS), and 1% Penicillin/Streptomycin. Exponentially growing cells were trypsinized, centrifuged and split twice weekly at 5 10^4 cells/ml.
(§3) The anti-HIV assay with TZM-b1 cells is essentially the same as described above with P4 cells. The main difference between the two cell lines is that the TZM-b1 cells express at their surface both the CD4 and CCR5 proteins, acting as receptor and co-receptor for HIV entry, respectively (Wei et al. 2002. Antimicrob. Agents Chemother. Vol. 46, p 1896-1905). This feature makes the cells very sensitive to infection by the virus. The TMZ-b1 cells were infected with equal amount of cell-free virus, corresponding to 10 ng of HIV p24 antigen. This amount is ten times lower than the amount used to infect the P4 cells.

Series [2] relates to HIV-1 mutant Cys188RT in TZM-bl cells. As to the kind of experiment: Anti-HIV assay on TZM-bl cells, Cys188RT mutant. It counts as cell-based. The conditions noted are these: TZM-bl, mutant Cys188RT; read-out: EC50 Cys188RT TZM-bl.
From the text: (§4) In order to introduce mutation(s) at the level of the pol gene coding for the RT in the pNL4-3 plasmid containing the complete viral genome (Adachi et al., 1986. J. Virol., Vol. 59 p 284-291) we used the “Quick change mutagenesis kit” (Stratagene). The following mutations were separately introduced in pNL4-3: L100I, K103N, V108I, Y181C, Y188C, and the double mutations K103N/V108I. These mutations were chosen because of the resistance that they confer to existing NNRTI. The production procedure of the mutant viral stocks is identical to the one described above.
as §2, §3

The subject of series [3] is HIV-1 mutant Cys181RT in TZM-bl cells. The experiment in a line: Anti-HIV assay on TZM-bl cells, Cys181RT mutant. It counts as cell-based. As to conditions: TZM-bl, mutant Cys181RT; read-out: EC50 Cys181RT TZM-bl.
From the text: as §4, §2, §3

Series [4] has as its system HIV-1 mutant Asn103/Ile108RT in TZM-bl cells. The experiment in a line: Anti-HIV assay on TZM-bl cells, Asn103/Ile108RT double mutant. The conditions noted are these: TZM-bl, double mutant Asn103/Ile108RT; read-out: EC50 Asn103/Ile108RT TZM-bl. It counts as cell-based.
From the text: as §4, §2, §3

The target of series [5] is T1, HIV-1 reverse transcriptase (Human immunodeficiency virus type 1 group M subtype B, UniProt P04585).
T1 construct: fixed-time assay for HIV-1 reverse transcriptase RNA dependent DNA polymerase activity; RT was purchased from Calbiochem; purchased Calbiochem CAL382129-500
The experiment in a line: HIV-1 in vitro reverse transcriptase activity (fixed-time RNA dependent DNA polymerase assay). The conditions noted are these: residual RT activity, compound at 10 μM; RT activity without compound set at 100%. It counts as biochemical. How it is done:
For the in vitro inhibition studies of the HIV-1 reverse transcriptase activity, stock solutions of the compounds of the present invention were prepared in dimethyl sulfoxide at a final concentration of 10 mM and kept at room temperature. Nevirapine was purchased from Boehringer Ingelheim. Efavirenz was received from the NIH AIDS Research and Reference Reagent Program.
In vitro inhibition studies used a fixed-time assay for HIV-1 reverse transcriptase RNA dependent DNA polymerase activity. RT was purchased from Calbiochem (ref CAL382129-500). One unit of RT corresponds to the amount of enzyme which incorporates one nanomole of [^3H]TTP in 10 minutes at 37° C.
Assays were performed in a final volume of 50 μl. […] Reaction mixtures were incubated at 37° C. for 10 min. The incorporation rate was determined by a standard trichloroacetic acid precipitation procedure (adapted from Current protocols in molecular biology. Eds Wiley, MGH Harvard medical school) and liquid scintillation counting using a Wallac scintillation counter.
The in vitro activity of the compounds, at a final concentration of 10 μM, on the reverse transcriptase (RT) activity of HIV-1 is derivable from the relative (%) reduction in RT activity. Hereby, the RT activity in the absence of any of the compounds is set at 100%.

For series [6], the system named is HIV-1 with WT (wild type) RT in P4 cells. The experiment in a line: Anti-HIV assay on P4 cell line, WT RT. The class given is cell-based. The conditions noted are these: P4 cell line, WT RT; for pEC50: read-out: EC50 WT. The procedure: (§5) For the antiviral and the cytotoxicity assays, the drugs were diluted in complete DMEM medium. In these experiments, drugs were diluted in triplicate wells in a 96-well plate in six, 5 fold serial dilutions.
Two days later, co-cultivation with SupT1 cells (a human T-cell lymphoma cell line) was initiated to facilitate rapid production of progeny virions. Production of virus was measured by using the Innotest HIV Antigen mAb p24 kit (Innogenetics). At the peak of production cultures were harvested and filtered. The virus stocks were stored at −80° C. until used.
Anti-HIV activity and cytotoxicity of the compounds were tested on a P4 cell line. […] The P4 cells were cultured in complete DMEM medium supplemented with 10% fetal bovine serum (FBS), 0.5% of Penicillin/Streptomycin and G418 at 0.5 mg/ml. Exponentially growing cells were trypsinized, centrifuged and split twice weekly at 5.10^4 cells/ml.
The P4 cells are HIV-infectible Hela-CD4 cells that carry the bacterial lacZ gene under the control of the HIV-1 long terminal repeat (LTR). In this cell line, transcription of the LacZ gene is driven by the HIV-1 LTR. […] In other words, in this system, the expression level of the β-galactosidase gene is proportional to the viral replication.
Briefly, in the anti-HIV assay 100 Ål of P4 cells were plated in 96-well plate at a concentration of 0.4 10^5 cells/ml and incubated at 37° C., 5% CO2. After 48 h, the medium was removed and 100 Ål of the different drugs dilutions were added to the cells. Four hours after the addition of the drugs all cells were infected with equal amount of cell-free virus, corresponding to 100 ng of HIV p24 antigen. After 48 h of incubation at 37° C., 5% CO2, β-galactosidase activity was measured using chlorophenol red-β-D-galactopyranoside assays.
Each assay was performed a minimum of three times. The 50% effective concentration (Ec50) was calculated from each dose response curve using the CurveExpert 1.3 software.

For the next series, the system named is P4 cells. As to the kind of experiment: Cytotoxicity (CC50), MTT assay on P4 cells. It counts as cell-based. The conditions noted are these: 3 days. The procedure:
as §5
(§6) The 50% cytotoxic concentration (CCso) was determined using a protocol adapted from Pauwels et al. (1988. J. Virol. Methods 20(4):309-21). Briefly, flat bottom 96-well plates were filled with 50 μl of complete medium containing 5.10^3 P4 cells. 2 hours later 50 μl of drug solution were added to the cells. Drugs (dissolved in DMEM, see above) were diluted in six, 5-fold serial dilutions from stock solutions in triplicate wells of a 96-well plate. Cells and compounds were incubated at 37° C. in growth medium for 3 days. Cell viability was determined by MTT assays using the Roche Cell Proliferation KIT. The absorbance (λ=570 nm) was measured on a Benchmark™ Microplate Reader (Biorad) and compared with 12 cell control replicates (no drug added). Each assay was performed at least three times for a total of at least nine replicate wells. This method detects both cytostatic and cytolytic effects of drugs.

For series [7], the system named is HIV-1 with WT (wild type) RT in MT4 cells. As to the kind of experiment: Anti-HIV assay on MT4 cell line, WT RT. The class given is cell-based. How it is done:
as §1
Anti-HIV activity of the compounds was tested on MT-4 cell line. The MT-4 cell line (Larder et al. 1989. Sciences, Vol. 243 p 1731) was received from the NIH AIDS Research and Reference Reagent Program. These cells were cultured in RPMI medium supplemented with 10% fetal bovine serum (FBS), and 1% Penicillin/Streptomycin. The cultures were split regularly to keep cells densities between 0.3 to 1.2 10^6 cells/ml.
The MT-4 cells rapidly die upon infection by HIV. In this system there is an inverse correlation between cells survival and the amount of viral replication.
Briefly, in the anti-HIV assay exponentially growing MT-4 cells were infected with HIV-1. 100 μl of infected MT-4 cells were seeded in 96-well plate at a concentration of 0.4 10^5 cells/ml, and 100 μl of the different drugs dilutions were added to the cells. After 4 days of incubation at 37° C., 5% CO2, cells survival was measured using MTS (3-(4-5-dimethylthiazol-2-yl)-5-(−(3-carboxymethoxyphenyl)-2-(4-sulfophenyl)-2H-tetrazolium) assays. This compound is reduced by viable cells in a colored soluble formazan salt.
The absorbance was measured on a Benchmark™ Microplate Reader (Biorad) (λ=490 nm) and compared with 12 cell control replicates (nor virus nor drug added) and 12 virus control wells (no drug added). Each assay was performed a minimum of three times. The 50% effective concentration (EC50) was calculated from each dose response curve using the CurveExpert 1.3 software.

Series [8] concerns HIV-1 with WT (wild type) RT in PBMC. The experiment in a line: Anti-HIV assay on PBMC, WT RT (p24). The class given is cell-based. How it is done: as §1
Anti-HIV activity of the compounds was tested on Peripheral Blood Mononuclear Cells (PBMCs). These cells were separated from the blood of healthy donor using established procedures. PBMCs were cultured in RPMI medium supplemented with 10% fetal bovine serum (FBS), 1% Penicillin/Streptomycin and 20 U/ml of Interleukin-2.
PBMCs isolated from the blood of healthy donor contain CD4^+ T-lymphocytes which are one of the main targets of HIV in infected individuals.
Briefly, in the anti-HIV assay PBMCs, activated with phytohemagglutinin, were infected with HIV-1. 100 μl of infected PBMCs were seeded in 96-well plate at a concentration of 1 10^5 cells/ml, and 100 μl of the different drugs dilutions were added to the cells. After 4 days of incubation at 37° C., 5% CO2, cells cultures supernatants were collected. The amount of the viral capsid protein p24 in the supernatants was measured using the Innotest HIV Antigen mAb P24 kit (Innogenetics).

Series [9] addresses T1, HIV-1 reverse transcriptase. The experiment in a line: RT inhibition as a function of preincubation time with the RT. It counts as biochemical. The source says:
Z122 seems to be an irreversible inhibitor of the reverse transcriptase.

Series [10] has the same target. As to the kind of experiment: RT activity after separation of unbound compound on micro-spin desalting column. It counts as biochemical. As to conditions: after preincubation with RT. The procedure: After the preincubation, the unbound Z122 and the RT were separated using a micro-spin desalting column.
Series [11] in a line: Cytotoxicity (CC50), MTT assay on P4 cells. It counts as cell-based. The conditions noted are these: human. How it is done:
as §5, §6

pEC50: −log10 of the molar value. Where two headings read alike, the source gives them in different places. A value given as a limit tells only on which side of the number the result lay.

This is an account of results in patent US20070275953A1 (priority 2003, published 2007).

As to `CCc1c(C)[nH]c(=O)c(CC)c1OC1CC(C)CC(C)C1` (centres unmarked) [Z167], the pEC50 in series [1] was above 9.00; in series [2], above 9.00; in series [3], 8.15; in series [4], 6.89.
In the case of `CCc1c(C)[nH]c(=O)c(CSCCOC(=O)CCl)c1OC1CC(C)CC(C)C1` (centres unmarked) [Z122], in series [5], the “Relative (%) RT activity in vitro (compound added at 10 μM)” value amounted to 39.1%. Moreover, the values for the pEC50 in series [6], in [7] and in [8] were 9.00, above 9.00 and above 9.00, respectively. The compound also displayed a CC50 in the series on P4 cells of 27500 nM. The “dependence of RT inhibition on time of (pre)incubation with the RT” value in [9] is “increases with respect to the time of incubation”. For the same compound, the “change in RT activity after separation of unbound compound (micro-spin desalting column)” value in series [10] was “did not observe any increase in the RT activity”.
Regarding `CCc1c(C)[nH]c(=O)c(CSCCO)c1OC1CC(C)CC(C)C1` (centres unmarked) [Z121, 5-ethyl-6-methyl-4-[(3,5-dimethylcyclohexyl)oxy]-3-{[(2-hydroxyethyl)sulfanyl]methyl}pyridine-2(1H)-one], the melting point fell in the range of 133 to 134 °C. In addition, the “Relative (%) RT activity in vitro (compound added at 10 μM)” value in [5] was 1.4%. The pEC50 in [6] (Human immunodeficiency virus 1) is above 9.00. Moreover, the “SI (selectivity index = CC50/EC50)” value in series [6] was above 27000. Besides, the CC50 at 3 days in [11] is 27000 nM. In [7] (Human immunodeficiency virus 1), this compound gave a pEC50 of 7.85. The pEC50 in [8] (Human immunodeficiency virus 1) is above 9.00. Besides, the “dependence of RT inhibition on time of (pre)incubation with the RT” value in series [9] was “independent of the preincubation time”. The “change in RT activity after separation of unbound compound (micro-spin desalting column)” value in series [10] was “significant increase in the RT activity”.
